# Experimental data published in patent publication US10689362B2, “Quinoxaline compounds as type III receptor tyrosine kinase inhibitors” (Development Center for Biotechnology, priority 2016, dated 2020).
# Experiments:
# PDGFRβ kinase = PDGFRβ kinase (Homo sapiens (Human), UniProt P09619); test: PDGFRβ kinase assay (radiometric); type: biochemical
# Outline: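 Radiometric assay: recombinant PDGFRβ with poly(Glu4:Tyr1) in MOPS pH 7.0 buffer containing Mg2+/Mn2+, 10 μM ATP plus [33P]-ATP, and compound at 4% DMSO final. Incubated 60 min at 30° C, stopped with phosphoric acid, filter-captured and scintillation-counted. IC50 from curve fitting.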
# c-KIT kinase = c-KIT kinase (Homo sapiens (Human), UniProt P10721); test: c-KIT kinase assay (radiometric); type: biochemical
# Outline: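 Recombinant c-Kit (20 ng) with 2 μg Poly-(Glu4:Tyr1) in MOPS pH 7.0 buffer with MgCl2/MnCl2, 10 μM ATP plus [^33P]-ATP, 4% DMSO final, 60 min at 30° C. Stopped with phosphoric acid, filter-captured and scintillation counted; IC50 from curve fit.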
# [1] = tested on: THP-1 human acute monocytic leukemia cell harboring NRAS G12D mutation; test: THP-1 cell proliferation assay (counter screen, CellTiter-96); type: cell-based; details: Cytotoxicity, THP-1 cells (counter screen), 72 hours
# Outline: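 Growth inhibition read as 490 nm absorbance after 4 h with CellTiter96 AQueous One reagent, following 72 h compound exposure at rising concentrations. THP-1 (NRAS G12D) cells plated at 5000 per well and left overnight at 37 °C, 5% CO2 before dosing.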
# FLT3 kinase = FLT3 kinase (Homo sapiens (Human), UniProt P36888); test: FLT3 kinase assay (radiometric); type: biochemical; details: bound
# Outline: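 Recombinant FLT3 (5 ng) phosphorylating poly(Glu4:Tyr1) (2 μg) with 10 μM ATP plus [^33P]-ATP in MOPS pH 7.0 buffer, 4% DMSO final, 60 min at 30° C. Reaction stopped with phosphoric acid, filter-captured and scintillation-counted; IC50 derived from dose-response.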
# [2] = tested on: Kasumi-1 human acute myeloid leukemia cell with c-KIT N822K activating mutation; test: Kasumi-1 cell proliferation assay (CellTiter-96); type: cell-based; details: Cytotoxicity, Kasumi-1 cells, 72 hours
# Outline: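 After 72 h of treatment with a compound dilution series, growth of c-KIT N822K-driven Kasumi-1 cells (64000 per well, plated the day before) was read as 490 nm absorbance. This followed a 4 h incubation with CellTiter96 AQueous One reagent.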
# [3] = tested on: osteoclast precursors (osteoclast differentiation); test: Osteoclast tartrate-resistant acid phosphatase assay; type: cell-based; details: 168 h, at 1 μM treatment, 7 days, RANKL and M-CSF, read-out: inhibition activity against osteoclast differentiation
# Outline: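 Differentiation inhibition was scored at 1 μM compound in duplicate, using supernatant TRAP activity read at 550 nm with an acid phosphatase kit.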
# [4] = tested on: MV4-11 human acute myeloid leukemia cell with FLT3-ITD mutation; test: MV4-11 cell proliferation assay (CellTiter-96); type: cell-based; details: Cytotoxicity, MV4-11 cells, 72 hours
# Outline: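 Growth inhibition read as absorbance at 490 nm after 4 hours with CellTiter96 AQueous One reagent. Before that, FLT3-ITD-dependent MV4-11 cells (6500 cells/well, overnight at 37° C., 5% CO2) received a rising compound concentration series for 72 hours.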
# [5] = tested on: CSF-1-dependent M-NFS-60 mouse myeloid leukemia cell; test: M-NFS-60 cell proliferation assay (CellTiter-96); type: cell-based; details: Cytotoxicity, M-NFS-60 cells, 72 hours
# Outline: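 Growth inhibition was measured as absorbance at 490 nm after 4 h with CellTiter 96 AQueous One reagent. Beforehand, M-NFS-60 cells (2000/well, CSF-1-dependent) were treated with a compound dilution series for 72 h following overnight plating at 37 °C, 5% CO2.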
# CSF-1R kinase = CSF-1R kinase (Homo sapiens (Human), UniProt P07333); test: CSF-1R kinase assay (AlphaScreen); type: biochemical; details: class symbol
# Protocol: Inhibition of CSF-1R kinase activity by a test compound disclosed herein was estimated by AlphaScreen (PerkinElmer). […] Reactions were incubated at 30° C. for 45 min and stopped by adding 5 μL of 50 mM EDTA. Analysis of resulting product using an AlphaScreen kit, and counted with Enspire Alpha (PerkinElmer). […] The IC50 values of quinoxaline compounds of this invention against CSF-1R kinase were determined using the GraphPad Prism 5 software.
# Sequence of CSF-1R kinase (P07333 20-972): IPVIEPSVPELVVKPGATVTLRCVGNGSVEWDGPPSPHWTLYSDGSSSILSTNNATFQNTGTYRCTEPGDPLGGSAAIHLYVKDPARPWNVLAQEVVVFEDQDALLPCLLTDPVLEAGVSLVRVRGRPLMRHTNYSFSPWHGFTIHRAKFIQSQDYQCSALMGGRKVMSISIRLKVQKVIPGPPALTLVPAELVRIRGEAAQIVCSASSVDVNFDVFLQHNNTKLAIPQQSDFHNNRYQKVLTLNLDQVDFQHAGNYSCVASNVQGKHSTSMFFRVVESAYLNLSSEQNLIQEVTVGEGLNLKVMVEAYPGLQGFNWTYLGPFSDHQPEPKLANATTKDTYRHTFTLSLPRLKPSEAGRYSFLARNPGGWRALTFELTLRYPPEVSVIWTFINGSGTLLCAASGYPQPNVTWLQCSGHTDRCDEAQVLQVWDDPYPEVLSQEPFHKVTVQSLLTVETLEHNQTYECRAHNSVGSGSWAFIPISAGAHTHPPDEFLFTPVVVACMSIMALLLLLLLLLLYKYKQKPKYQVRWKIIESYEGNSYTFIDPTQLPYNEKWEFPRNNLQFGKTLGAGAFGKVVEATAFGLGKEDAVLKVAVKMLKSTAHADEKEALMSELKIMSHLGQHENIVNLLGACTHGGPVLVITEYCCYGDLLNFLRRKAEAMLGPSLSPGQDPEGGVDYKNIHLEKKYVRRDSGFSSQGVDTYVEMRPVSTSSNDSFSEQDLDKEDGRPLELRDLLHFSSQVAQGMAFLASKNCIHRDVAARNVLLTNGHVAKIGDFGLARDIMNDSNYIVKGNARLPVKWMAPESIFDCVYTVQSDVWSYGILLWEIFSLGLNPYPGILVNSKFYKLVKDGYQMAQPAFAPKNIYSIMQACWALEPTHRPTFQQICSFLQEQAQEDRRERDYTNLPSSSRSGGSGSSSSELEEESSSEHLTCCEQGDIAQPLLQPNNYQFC
# Sequence of FLT3 kinase (P36888 27-993): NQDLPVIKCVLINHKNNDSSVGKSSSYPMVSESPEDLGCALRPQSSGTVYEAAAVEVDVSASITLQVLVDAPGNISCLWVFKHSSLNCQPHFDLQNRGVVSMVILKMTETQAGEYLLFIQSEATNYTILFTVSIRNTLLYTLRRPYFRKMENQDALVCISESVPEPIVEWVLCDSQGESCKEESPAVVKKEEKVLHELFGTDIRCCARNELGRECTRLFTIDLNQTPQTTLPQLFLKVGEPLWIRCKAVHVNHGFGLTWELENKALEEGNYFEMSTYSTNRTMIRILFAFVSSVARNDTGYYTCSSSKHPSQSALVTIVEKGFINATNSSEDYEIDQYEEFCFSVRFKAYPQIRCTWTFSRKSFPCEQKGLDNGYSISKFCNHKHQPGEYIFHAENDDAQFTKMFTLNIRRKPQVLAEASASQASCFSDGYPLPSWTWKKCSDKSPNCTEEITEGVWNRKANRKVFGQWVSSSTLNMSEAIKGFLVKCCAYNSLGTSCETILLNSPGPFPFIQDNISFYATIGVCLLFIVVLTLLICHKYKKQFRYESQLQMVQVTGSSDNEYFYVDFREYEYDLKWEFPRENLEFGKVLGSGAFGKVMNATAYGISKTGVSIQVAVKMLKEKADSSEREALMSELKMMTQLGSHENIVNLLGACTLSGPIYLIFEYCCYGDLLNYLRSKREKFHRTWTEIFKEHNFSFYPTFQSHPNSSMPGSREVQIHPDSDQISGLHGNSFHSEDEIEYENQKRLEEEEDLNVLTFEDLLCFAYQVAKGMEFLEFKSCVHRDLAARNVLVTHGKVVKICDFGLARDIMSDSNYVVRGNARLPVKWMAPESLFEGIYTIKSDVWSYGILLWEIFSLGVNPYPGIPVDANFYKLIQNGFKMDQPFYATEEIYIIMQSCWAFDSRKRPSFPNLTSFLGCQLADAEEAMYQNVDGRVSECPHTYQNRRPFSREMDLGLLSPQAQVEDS
# Sequence of c-KIT kinase (P10721 26-976): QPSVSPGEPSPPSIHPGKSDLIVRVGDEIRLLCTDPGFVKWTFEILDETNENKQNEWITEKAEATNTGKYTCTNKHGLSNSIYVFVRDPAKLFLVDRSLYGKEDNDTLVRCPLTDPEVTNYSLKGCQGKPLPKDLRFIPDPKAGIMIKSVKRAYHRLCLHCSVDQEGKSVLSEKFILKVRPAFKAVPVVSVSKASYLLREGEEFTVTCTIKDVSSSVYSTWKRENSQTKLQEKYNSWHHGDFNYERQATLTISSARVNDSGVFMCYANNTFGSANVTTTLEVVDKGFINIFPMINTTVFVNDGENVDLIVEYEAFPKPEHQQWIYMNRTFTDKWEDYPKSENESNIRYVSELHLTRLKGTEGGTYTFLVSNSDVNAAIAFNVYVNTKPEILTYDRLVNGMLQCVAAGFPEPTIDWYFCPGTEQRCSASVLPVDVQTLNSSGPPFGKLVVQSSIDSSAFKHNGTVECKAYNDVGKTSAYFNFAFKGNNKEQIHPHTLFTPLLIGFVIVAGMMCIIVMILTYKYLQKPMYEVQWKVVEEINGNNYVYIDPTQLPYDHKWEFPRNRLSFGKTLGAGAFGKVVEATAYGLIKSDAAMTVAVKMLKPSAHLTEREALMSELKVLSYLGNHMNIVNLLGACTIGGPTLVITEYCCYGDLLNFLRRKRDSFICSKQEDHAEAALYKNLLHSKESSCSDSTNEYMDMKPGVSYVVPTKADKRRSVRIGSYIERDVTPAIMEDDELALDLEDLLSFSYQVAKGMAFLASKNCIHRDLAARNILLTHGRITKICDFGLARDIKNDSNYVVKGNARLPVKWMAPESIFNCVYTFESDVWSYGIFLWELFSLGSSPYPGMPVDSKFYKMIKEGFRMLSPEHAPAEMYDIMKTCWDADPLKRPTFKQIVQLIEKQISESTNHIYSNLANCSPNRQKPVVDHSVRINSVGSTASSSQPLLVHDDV
# Sequence of PDGFRβ kinase (P09619 33-1106): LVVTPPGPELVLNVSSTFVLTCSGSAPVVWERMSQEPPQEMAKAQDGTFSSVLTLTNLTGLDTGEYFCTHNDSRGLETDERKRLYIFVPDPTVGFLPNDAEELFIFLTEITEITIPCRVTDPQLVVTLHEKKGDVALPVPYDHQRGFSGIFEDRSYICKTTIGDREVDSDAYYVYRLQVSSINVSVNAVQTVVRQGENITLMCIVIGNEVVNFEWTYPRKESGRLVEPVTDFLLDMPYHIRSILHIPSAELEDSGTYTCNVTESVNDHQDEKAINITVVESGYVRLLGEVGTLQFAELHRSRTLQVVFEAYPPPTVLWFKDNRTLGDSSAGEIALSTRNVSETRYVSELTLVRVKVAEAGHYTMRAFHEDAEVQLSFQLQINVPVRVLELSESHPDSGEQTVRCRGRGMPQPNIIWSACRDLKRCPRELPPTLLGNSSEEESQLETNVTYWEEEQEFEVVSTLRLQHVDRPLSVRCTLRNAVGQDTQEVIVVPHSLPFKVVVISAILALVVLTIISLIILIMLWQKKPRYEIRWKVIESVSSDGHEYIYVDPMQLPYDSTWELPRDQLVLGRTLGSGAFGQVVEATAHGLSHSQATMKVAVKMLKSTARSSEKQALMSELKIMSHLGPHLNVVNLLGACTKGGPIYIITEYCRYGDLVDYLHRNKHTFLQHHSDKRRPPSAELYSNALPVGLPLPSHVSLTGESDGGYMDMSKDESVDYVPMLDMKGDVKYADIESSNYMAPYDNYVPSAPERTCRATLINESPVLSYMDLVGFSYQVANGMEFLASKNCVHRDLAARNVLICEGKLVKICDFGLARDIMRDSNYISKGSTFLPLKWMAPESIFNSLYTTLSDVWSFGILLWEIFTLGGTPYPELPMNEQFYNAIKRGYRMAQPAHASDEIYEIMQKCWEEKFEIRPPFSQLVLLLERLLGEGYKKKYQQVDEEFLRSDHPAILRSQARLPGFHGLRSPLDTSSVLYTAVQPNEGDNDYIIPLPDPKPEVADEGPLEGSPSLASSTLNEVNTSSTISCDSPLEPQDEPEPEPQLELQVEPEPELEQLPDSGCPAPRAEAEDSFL
Structure (SMILES),IC50 (PDGFRβ kinase; bound) [µM],IC50 (c-KIT kinase; class symbol) [µM],IC50 (FLT3 kinase) [µM],IC50 (CSF-1R kinase) [µM],IC50 (PDGFRβ kinase; class symbol) [µM],IC50 (c-KIT kinase; bound) [µM],IC50 [1] [µM],IC50 [2] [µM],inhibition at 1 µM [3] [%],IC50 [4] [µM],IC50 [5] [µM]
"COc1ccc(COc2ccc(Nc3ccc4ncc(N(C)C)nc4c3C#N)cc2OC)cc1C#N [Example 139, 6-((4-((3-cyano-4-methoxybenzyl)oxy)-3-methoxyphenyl)amino)-3-(dimethylamino)quinoxaline-5-carbonitrile]",> 1,0.1 to 0.3,> 1,< 0.1,–,–,> 10,> 10,> 50,> 10,< 0.3
"COc1cc(Nc2ccc3ncc(N4CCOCC4)nc3c2C#N)ccc1OCc1cnn(CC2CC2)c1 [Example 141, 6-((4-((1-(cyclopropylmethyl)-1H-pyrazol-4-yl)methoxy)-3-methoxyphenyl)amino)-3-morpholinoquinoxaline-5-carbonitrile]",–,< 0.1,> 1,< 0.1,0.3 to 1,–,> 10,< 0.3,> 50,1 to 10,< 0.3
"COc1cc(Nc2ccc3ncc(N4CCOCC4)nc3c2C#N)cnc1OCc1ccc(C)nc1 [Example 143, 6-((5-methoxy-6-((6-methylpyridin-3-yl)methoxy)pyridin-3-yl)amino)-3-morpholinoquinoxaline-5-carbonitrile]",> 1,0.3 to 1,> 1,< 0.1,–,–,> 10,> 10,> 50,1 to 10,< 0.3
"COc1ccc(COc2ncc(Nc3ccc4ncc(N5CCOCC5)nc4c3C#N)cc2OC)cn1 [Example 144, 6-((5-methoxy-6-((6-methoxypyridin-3-yl)methoxy)pyridin-3-yl)amino)-3-morpholinoquinoxaline-5-carbonitrile]",> 1,–,> 1,< 0.1,–,> 1,> 10,> 10,> 50,> 10,< 0.3

# Second part, led by results:
IC50 (PDGFRβ kinase; bound) [µM],IC50 (c-KIT kinase; class symbol) [µM],IC50 (FLT3 kinase) [µM],IC50 (CSF-1R kinase) [µM],IC50 (PDGFRβ kinase; class symbol) [µM],IC50 (c-KIT kinase; bound) [µM],Structure (SMILES),IC50 [1] [µM],IC50 [2] [µM],inhibition at 1 µM [3] [%],IC50 [4] [µM],IC50 [5] [µM]
> 1,< 0.1,> 1,< 0.1,–,–,"COc1cc(Nc2ccc3ncc(N4CC(C)(OC)C4)nc3c2C#N)ccc1OCc1ccc(C)nc1 [Example 138, 3-(3-methoxy-3-methylazetidin-1-yl)-6-((3-methoxy-4-((6-methyl-pyridin-3-yl)methoxy)phenyl)amino)quinoxaline-5-carbonitrile]",> 10,< 0.3,> 50,1 to 10,< 0.3
> 1,0.1 to 0.3,> 1,< 0.1,–,–,"COc1cc(Nc2ccc3ncc(N4C[C@@H](C)O[C@@H](C)C4)nc3c2C#N)ccc1OCc1ccc(C)nc1 [Example 145, 3-((2S,6R)-2,6-dimethylmorpholino)-6-((3-methoxy-4-((6-methyl-pyridin-3-yl)methoxy)phenyl)amino)quinoxaline-5-carbonitrile]",> 10,0.3 to 1,> 50,1 to 10,< 0.3
